From patent publication US20210230159A1, “4H-PYRIDO[1,2-A]PYRIMIDIN-4-ONE COMPOUNDS” (Prana Biotechnology Limited, priority 2014, published 2021)

Assay: Hydrogen peroxide (H2O2) inhibition assay (fluorescence, DCF/horseradish peroxidase)
Type: biochemical
Settings: for IC50: HCl salt tested where HCl salt MW is given; for Fe-ASC % (cf. 0.4 uM Fe/Asc; cf. CQ, CQ = 100%): ascorbic acid as reducing substrate; for Fe-ASC % (cf. 0.4 uM Fe/Asc; cf. CQ, CQ = 100%) / Fe-DA % (cf. 0.4 uM Fe/DA; cf. CQ, CQ = 100%): test compound 0.4 μM, lower values = greater inhibition of H2O2; for Fe-DA % (cf. 0.4 uM Fe/DA; cf. CQ, CQ = 100%): dopamine as reducing substrate
Protocol: Assay 1. Hydrogen Peroxide Assay
H2O2 is a strong oxidizer and a highly reactive oxygen species that is known to be toxic to surrounding proteins and organelles, inhibiting their function. […] […] H2O2 generated by the system is assessed by measuring the specific fluorescence profile at the excitation and emission wavelengths of 485 and 530 nm respectively, in the presence of test compound. Test compounds were dissolved in DMSO and tested at concentrations of 0.4 μM. Test compounds are ranked according to their capacity to inhibit H2O2 generated by the system where lower values reflect greater ability to inhibit H2O2 production.

Row | IC50 [nM] | Fe-ASC % (cf. 0.4 uM Fe/Asc; cf. CQ, CQ = 100%) [% ASC] | Fe-DA % (cf. 0.4 uM Fe/DA; cf. CQ, CQ = 100%) [%] | SMILES
1 | 400 | 178 | 55 | CCN(CC)Cc1cc(=O)n2c(C)ccc(O)c2n1 [Compound 1490]
2 | 430 | 62 | – | CCCCCCCCNCc1cc(=O)n2cccc(O)c2n1 [Compound 1410]
3 | 490 | 59 | 57 | O=C(NCC1CCCCC1)c1cnc2c(O)cccn2c1=O [Compound 1461]
4 | 460 | 137 | 66 | O=c1cc(CNc2cccnc2)nc2c(O)cccn12 [Compound 1448]
5 | 1700 | 49 | – | O=c1cc(CN2CCCCC2)nc2c(O)cccn12 [Compound 1403]
6 | 300 | >222 | 48 | C#CCN(C)Cc1cc(=O)n2c(C)ccc(O)c2n1 [Compound 1491]
7 | 240 | 128 | 58 | O=c1cc(CNCc2ccccc2)nc2c(O)cccn12 [Compound 1442]
8 | 440 | 156 | 47 | Cc1ccc(O)c2nc(CN3CCN(Cc4ccccc4F)CC3)cc(=O)n12 [Compound 1522-]
9 | 500 | 63 | 43 | Cc1ccc(O)c2nc(CNCc3ccc(Cl)cc3)cc(=O)n12 [Compound 1469]
10 | 340 | 218 | 56 | O=C(NCc1cccnc1)c1cnc2c(O)cccn2c1=O [Compound 1446]
11 | 300 | 125 | 62 | Cc1ccc(O)c2nc(CN3CCCCC3)cc(=O)n12 [Compound 1471]
12 | 540 | 60 | 49 | O=C(NCc1ccc(Cl)cc1Cl)c1cnc2c(O)cccn2c1=O [Compound 1452]
13 | > 10000 | 123 | 50 | CN(Cc1cc(=O)n2cccc(O)c2n1)C1CCCCC1 [Compound 1521]
14 | 460 | 147 | 42 | CN(Cc1ccc(F)cc1)Cc1cc(=O)n2cccc(O)c2n1 [Compound 1479]
15 | 700 | 135 | 49 | Cc1ccc(O)c2nc(CN(C)C3CCCCC3)cc(=O)n12 [Compound 1523]
16 | < 100 | 176 | 45 | CNC(=O)c1cnc2c(O)cccn2c1=O [Compound 1445]
17 | 330 | 32 | – | CCNCc1cc(=O)n2cccc(O)c2n1 [Compound 1400]
